Each block holds one molecule with its values, some of them ahead of it. Active and inactive are the calls of the source.
Columns and labels:
[1] = target: T1, Rac GTPase-activating protein 1 (Homo sapiens, UniProt Q9H0H5); test: MgcRacGAP GTPase-activating activity inhibitors, confirmation, biochemical, ADP Hunter fluorescence, primary and confirmatory (AID 624330); assay type: functional
T1 sequence (Q9H0H5 whole entry): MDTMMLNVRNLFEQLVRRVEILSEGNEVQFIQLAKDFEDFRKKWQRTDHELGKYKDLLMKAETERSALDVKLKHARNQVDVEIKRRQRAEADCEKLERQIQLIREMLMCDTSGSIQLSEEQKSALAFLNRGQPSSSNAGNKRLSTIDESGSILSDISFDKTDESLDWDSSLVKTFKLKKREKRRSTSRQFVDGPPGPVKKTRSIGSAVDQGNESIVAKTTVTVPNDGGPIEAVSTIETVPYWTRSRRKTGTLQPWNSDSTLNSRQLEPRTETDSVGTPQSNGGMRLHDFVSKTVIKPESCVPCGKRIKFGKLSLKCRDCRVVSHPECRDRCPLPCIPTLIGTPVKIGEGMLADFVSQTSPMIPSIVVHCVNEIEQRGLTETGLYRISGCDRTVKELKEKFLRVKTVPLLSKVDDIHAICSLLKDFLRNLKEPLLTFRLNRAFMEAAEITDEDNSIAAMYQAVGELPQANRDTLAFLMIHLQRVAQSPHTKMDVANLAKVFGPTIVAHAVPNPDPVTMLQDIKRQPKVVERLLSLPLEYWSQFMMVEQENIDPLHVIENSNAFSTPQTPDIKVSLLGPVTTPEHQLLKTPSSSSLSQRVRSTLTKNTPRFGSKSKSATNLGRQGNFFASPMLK

[2] = target: T2, DNA repair protein RAD52 homolog (Homo sapiens, UniProt P43351); assay type: functional, biochemical
T2 sequence (P43351 whole entry): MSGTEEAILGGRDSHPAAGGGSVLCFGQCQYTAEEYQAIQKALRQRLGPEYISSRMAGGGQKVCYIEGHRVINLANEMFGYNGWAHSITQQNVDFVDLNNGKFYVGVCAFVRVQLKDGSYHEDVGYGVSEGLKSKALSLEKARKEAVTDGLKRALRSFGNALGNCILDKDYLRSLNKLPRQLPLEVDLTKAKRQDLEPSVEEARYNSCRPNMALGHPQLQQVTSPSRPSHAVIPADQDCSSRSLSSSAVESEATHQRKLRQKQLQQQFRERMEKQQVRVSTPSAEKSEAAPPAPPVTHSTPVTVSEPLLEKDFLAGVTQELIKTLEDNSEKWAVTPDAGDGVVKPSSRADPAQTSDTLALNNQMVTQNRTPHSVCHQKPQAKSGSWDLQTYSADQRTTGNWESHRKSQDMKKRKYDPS

[3] = HeLa cell cytotoxicity, dose response, cytotoxicity control for MgcRacGAP inhibitor project (AID 624300); assay type: functional
[4] = target: Glucose-6-phosphate 1-dehydrogenase (Homo sapiens, UniProt P11413); test: human G6PD enzyme inhibitors, dose response, selectivity assay for P. falciparum G6PD inhibitor project, biochemical, fluorescence (AID 504792); assay type: functional
Sequence of Glucose-6-phosphate 1-dehydrogenase (P11413 whole entry): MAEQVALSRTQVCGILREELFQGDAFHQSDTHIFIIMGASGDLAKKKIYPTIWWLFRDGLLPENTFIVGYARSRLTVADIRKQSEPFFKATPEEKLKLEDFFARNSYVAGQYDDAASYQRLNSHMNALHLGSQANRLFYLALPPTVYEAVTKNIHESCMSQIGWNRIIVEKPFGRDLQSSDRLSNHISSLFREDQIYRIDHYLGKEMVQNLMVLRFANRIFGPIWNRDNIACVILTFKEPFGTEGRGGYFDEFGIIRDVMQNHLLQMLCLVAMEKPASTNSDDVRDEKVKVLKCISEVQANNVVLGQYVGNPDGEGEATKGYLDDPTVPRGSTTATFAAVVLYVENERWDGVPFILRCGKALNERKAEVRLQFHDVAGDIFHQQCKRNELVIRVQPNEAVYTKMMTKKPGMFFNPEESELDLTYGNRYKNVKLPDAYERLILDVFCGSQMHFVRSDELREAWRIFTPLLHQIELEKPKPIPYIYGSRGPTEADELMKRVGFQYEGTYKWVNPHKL

[5] = target: T3, Apoptotic protease-activating factor 1 (Homo sapiens, UniProt O14727); assay type: functional;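 for EC50 Mean: caspase-3 cleavage of fluorogenic Rh110 DEVD substrate downstream of apoptosome activation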
T3 sequence (O14727 whole entry): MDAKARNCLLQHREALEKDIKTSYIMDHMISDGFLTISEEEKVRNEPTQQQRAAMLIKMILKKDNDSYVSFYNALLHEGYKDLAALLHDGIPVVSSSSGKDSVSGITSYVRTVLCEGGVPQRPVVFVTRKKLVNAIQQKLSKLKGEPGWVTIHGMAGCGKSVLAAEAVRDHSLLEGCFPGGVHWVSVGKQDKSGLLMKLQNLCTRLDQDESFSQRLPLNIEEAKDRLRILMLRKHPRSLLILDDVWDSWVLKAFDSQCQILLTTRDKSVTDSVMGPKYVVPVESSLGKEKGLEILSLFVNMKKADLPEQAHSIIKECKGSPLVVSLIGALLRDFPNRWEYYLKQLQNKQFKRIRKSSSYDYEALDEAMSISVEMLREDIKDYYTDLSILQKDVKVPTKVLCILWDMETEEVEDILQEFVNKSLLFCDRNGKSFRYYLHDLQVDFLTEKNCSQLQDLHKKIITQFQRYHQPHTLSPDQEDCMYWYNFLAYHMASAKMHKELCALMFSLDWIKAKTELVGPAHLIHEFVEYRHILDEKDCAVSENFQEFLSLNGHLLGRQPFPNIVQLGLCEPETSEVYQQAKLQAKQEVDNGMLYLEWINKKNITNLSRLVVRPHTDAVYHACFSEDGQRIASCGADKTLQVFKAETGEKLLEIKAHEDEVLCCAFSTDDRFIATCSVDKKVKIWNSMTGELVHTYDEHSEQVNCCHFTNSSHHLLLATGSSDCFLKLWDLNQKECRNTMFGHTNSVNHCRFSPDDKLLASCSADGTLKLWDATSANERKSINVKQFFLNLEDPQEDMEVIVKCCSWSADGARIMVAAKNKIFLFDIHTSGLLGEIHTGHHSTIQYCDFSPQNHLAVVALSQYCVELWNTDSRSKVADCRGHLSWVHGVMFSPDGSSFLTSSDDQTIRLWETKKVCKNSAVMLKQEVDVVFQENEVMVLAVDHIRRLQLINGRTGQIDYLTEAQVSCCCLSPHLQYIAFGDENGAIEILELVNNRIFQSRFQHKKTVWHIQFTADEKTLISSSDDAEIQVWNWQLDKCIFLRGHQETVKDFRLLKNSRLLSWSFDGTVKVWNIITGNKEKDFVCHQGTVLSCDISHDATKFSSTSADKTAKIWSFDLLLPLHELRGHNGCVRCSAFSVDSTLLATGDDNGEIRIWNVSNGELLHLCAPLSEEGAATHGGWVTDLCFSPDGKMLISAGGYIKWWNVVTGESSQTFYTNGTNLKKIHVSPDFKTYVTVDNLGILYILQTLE

[6] = target: Kallikrein-7 (Homo sapiens, UniProt P49862); test: Fluorescence Intensity-based biochemical primary high throughput dose response assay to identify activators of kallikrein-7 (K7) zymogen.
Sequence of Kallikrein-7 (P49862 whole entry): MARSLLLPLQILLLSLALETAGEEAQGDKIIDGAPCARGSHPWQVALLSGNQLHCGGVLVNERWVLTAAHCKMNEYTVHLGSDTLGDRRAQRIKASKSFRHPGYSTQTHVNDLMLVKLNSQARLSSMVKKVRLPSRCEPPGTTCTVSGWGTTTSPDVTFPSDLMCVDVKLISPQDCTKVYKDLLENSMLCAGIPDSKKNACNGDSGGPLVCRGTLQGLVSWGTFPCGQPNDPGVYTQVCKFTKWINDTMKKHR

[7] = target: Beta-galactosidase (Escherichia coli, UniProt Q8VNN2); test: PubChem AID 485352; assay type: functional
Sequence of Beta-galactosidase (Q8VNN2 whole entry): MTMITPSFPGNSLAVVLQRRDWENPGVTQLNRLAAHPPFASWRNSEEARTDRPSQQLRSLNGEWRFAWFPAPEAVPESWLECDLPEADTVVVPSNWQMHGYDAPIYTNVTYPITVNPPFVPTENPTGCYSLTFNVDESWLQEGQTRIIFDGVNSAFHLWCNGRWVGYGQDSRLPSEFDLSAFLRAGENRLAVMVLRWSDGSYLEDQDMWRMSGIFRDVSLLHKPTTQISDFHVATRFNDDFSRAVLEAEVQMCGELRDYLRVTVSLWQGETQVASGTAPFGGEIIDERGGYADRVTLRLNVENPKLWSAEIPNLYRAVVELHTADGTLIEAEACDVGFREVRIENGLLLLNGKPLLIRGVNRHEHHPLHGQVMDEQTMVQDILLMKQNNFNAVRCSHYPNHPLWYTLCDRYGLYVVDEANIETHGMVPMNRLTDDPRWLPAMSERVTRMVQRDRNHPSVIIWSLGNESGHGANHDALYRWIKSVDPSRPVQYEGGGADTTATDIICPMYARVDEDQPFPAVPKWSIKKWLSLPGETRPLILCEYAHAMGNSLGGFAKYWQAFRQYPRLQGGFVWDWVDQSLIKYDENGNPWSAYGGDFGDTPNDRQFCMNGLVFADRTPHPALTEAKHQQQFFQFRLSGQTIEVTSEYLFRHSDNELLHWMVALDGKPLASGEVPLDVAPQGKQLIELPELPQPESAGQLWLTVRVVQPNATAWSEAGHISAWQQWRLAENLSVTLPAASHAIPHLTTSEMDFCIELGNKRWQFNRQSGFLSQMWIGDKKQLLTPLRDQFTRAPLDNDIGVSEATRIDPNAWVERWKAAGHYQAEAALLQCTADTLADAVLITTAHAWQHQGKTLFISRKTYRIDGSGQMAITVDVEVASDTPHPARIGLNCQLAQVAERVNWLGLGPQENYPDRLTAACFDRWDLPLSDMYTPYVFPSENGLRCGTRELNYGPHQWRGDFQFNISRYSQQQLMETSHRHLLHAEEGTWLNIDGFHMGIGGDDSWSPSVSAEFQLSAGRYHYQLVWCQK

[8] = tested on: CHO-K1; test: (§1) Counterscreen for antagonists of the orexin 1 receptor (OX1R; HCRTR1): Homogeneous time resolved fluorescence (HTRF)-based cell-based dose response assay to identify antagonists of the parental CHO-K1 cell line. [Related pubchem assays (depositor defined):AID434989, AID435008, AID463079, AID485270, AID492963, AID492964, AID492965, AID493232, AID504699, AID504701]; assay type: functional; details: Cricetulus griseus
[9] = target: T4, Orexin/Hypocretin receptor type 1 (Homo sapiens, UniProt O43613); test: (§2) Fluorescence-based cell-based high throughput dose response assay for antagonists of the orexin 1 receptor (OX1R; HCRTR1). [Related pubchem assays (depositor defined):AID434989, AID435008, AID463079, AID485270, AID492963, AID492964, AID492965, AID493232, AID504717, AID504718]; assay type: functional
T4 sequence (O43613 whole entry): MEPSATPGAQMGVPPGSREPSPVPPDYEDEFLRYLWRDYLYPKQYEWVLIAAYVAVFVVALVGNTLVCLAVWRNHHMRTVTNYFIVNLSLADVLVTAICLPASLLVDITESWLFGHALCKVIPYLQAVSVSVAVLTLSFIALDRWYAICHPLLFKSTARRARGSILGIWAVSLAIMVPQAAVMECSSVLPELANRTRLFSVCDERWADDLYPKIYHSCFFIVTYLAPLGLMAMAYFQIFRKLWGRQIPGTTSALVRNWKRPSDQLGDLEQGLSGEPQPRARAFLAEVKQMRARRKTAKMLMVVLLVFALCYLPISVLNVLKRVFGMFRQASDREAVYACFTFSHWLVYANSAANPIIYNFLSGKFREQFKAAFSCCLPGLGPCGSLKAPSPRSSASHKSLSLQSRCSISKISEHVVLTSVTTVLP

[10] = target: T5, Orexin receptor type 2 (Homo sapiens, UniProt O43614); test: Counterscreen assay for antagonists of the orexin 1 receptor (OX1R; HCRTR1): Homogeneous Time Resolved Fluorescence (HTRF)-based cell-based dose response assay for antagonists of the orexin 2 receptor (OX2R; HCRTR2), run by assay provider.; assay type: functional
T5 sequence (O43614 whole entry): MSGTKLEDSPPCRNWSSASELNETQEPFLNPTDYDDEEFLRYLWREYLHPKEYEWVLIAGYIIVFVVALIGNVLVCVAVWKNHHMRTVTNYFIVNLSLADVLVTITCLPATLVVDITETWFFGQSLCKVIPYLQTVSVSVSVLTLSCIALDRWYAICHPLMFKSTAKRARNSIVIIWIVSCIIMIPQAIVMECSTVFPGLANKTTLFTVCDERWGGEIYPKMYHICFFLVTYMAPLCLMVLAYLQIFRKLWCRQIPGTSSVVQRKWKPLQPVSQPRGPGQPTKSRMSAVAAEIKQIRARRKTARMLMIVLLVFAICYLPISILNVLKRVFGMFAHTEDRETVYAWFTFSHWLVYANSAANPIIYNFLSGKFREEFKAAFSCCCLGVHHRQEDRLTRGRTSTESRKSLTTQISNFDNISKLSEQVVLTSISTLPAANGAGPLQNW

[11] = target: T6, Type-1 angiotensin II receptor (Homo sapiens, UniProt P30556); test: AT1 receptor antagonists, dose response, selectivity assay for APJ receptor antagonist project, cell-based, uHTS hits (AID 463214); assay type: functional;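 note: antagonist potency against angiotensin II stimulated AT1 response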
T6 sequence (P30556 whole entry): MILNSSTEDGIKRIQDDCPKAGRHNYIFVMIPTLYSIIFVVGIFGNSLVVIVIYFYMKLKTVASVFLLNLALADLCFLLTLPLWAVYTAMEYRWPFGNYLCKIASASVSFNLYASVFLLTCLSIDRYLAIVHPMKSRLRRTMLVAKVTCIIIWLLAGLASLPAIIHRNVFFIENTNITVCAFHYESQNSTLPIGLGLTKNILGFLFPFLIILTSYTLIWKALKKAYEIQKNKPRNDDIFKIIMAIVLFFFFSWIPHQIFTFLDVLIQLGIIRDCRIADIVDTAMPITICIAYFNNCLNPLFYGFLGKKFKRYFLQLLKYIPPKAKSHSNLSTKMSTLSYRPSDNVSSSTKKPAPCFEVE

[12] = as §1, with “Fluorescence-based” for “Homogeneous time resolved fluorescence (HTRF)-based”, “cell-based high throughput” for “cell-based”, “CHO” for “CHO-K1”; assay type: functional
[13] = target: T5, Orexin receptor type 2; test: Counterscreen assay for antagonists of the orexin 1 receptor (OX1R; HCRTR1): Fluorescence-based cell-based dose response assay for antagonists of the orexin 2 receptor (OX2R; HCRTR2), run by assay provider.; assay type: functional
[14] = target: T4, Orexin/Hypocretin receptor type 1; test: as §2, with “Homogeneous Time Resolved Fluorescence (HTRF)-based” for “Fluorescence-based”; assay type: functional
[15] = target: T3, Apoptotic protease-activating factor 1; test: SAR analysis of small molecule Activators of Apaf-1 in a Fluorescent assay.; assay type: functional; details: read-out: EC50_Mean

IC50 [1]: 52.8 µM (active)
AC50 [2]: 3.13 µM (active)
IC50 [4]: > 80 µM (inactive)
IC50 [5]: 30.7 µM (active)
EC50 [6]: > 2.57 µM (active)
SMILES: CN(C)/C=N/c1ccc2[nH]c3c4ccccc4nc-3cc2c1
CC50 [3]: 100 µM (active)

SMILES: CN(/N=C/c1cc([N+](=O)[O-])ccc1O)c1ccccc1
EC50 [7]: > 40 µM (inactive)
IC50 [8]: > 66.2 µM (inactive)
IC50 [9]: 2.48 µM (active)
IC50 [10]: > 50 µM (inactive)
IC50 [11]: > 40 µM (not active)
IC50 [12]: > 49.7 µM (inactive)
IC50 [13]: > 88.8 µM (inactive)
IC50 [14]: 2.39 µM (active)

EC50 [15]: > 100 µM (inactive)
SMILES: O=C(O)c1coc(-c2ccc(Cl)cc2)n1

EC50 [15]: > 100 µM (inactive)
SMILES: COC(=O)c1coc(-c2ccc(Cl)cc2)n1
